What is called Ki is a measure of affinity in units of concentration, obtained from inhibition or displacement.

The values below come from ChEMBL document CHEMBL3734659, “Identification of tris-(phenylalkyl)amines as new selective h5-HT2Breceptor antagonists” (Medchemcomm, 2015).

Assay [1] deals with Alpha-2B adrenergic receptor (Homo sapiens, UniProt P18089). In words: Displacement of [3H]Rauwolscine from human recombinant alpha 2B receptor expressed in HEKT cells after 90 mins by scintillation counting method. In kind it is cell-based. In general terms: Loss of bound radioactivity is the signal in a displacement assay; it reports binding, not function.
Sequence of Alpha-2B adrenergic receptor (P18089 whole entry): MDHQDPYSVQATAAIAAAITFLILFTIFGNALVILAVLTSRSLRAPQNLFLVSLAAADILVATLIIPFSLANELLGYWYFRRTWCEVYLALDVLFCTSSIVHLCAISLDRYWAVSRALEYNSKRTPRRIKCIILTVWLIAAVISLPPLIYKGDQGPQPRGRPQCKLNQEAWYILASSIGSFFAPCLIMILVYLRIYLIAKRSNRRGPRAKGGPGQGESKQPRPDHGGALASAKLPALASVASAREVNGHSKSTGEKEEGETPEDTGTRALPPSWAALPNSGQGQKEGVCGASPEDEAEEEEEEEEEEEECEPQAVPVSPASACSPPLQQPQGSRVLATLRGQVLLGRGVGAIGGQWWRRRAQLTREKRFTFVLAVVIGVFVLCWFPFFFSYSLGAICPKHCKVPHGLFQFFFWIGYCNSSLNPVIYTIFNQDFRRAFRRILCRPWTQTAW
The species named for the next assay is Rattus norvegicus. In words: Displacement of [3H]Flunitrazepam from rat brain BZP after 90 mins by scintillation counting method.
The target in assay [2] is 5-hydroxytryptamine receptor 1E (Homo sapiens) (UniProt P28566). In words: Displacement of [3H]5-CT from human recombinant 5-HT1E receptor stably expressed in HEK cell membrane after 90 mins by scintillation counting method. Conditions: HEK293. It counts as cell membranes.
Sequence of 5-hydroxytryptamine receptor 1E (Homo sapiens) (P28566 whole entry): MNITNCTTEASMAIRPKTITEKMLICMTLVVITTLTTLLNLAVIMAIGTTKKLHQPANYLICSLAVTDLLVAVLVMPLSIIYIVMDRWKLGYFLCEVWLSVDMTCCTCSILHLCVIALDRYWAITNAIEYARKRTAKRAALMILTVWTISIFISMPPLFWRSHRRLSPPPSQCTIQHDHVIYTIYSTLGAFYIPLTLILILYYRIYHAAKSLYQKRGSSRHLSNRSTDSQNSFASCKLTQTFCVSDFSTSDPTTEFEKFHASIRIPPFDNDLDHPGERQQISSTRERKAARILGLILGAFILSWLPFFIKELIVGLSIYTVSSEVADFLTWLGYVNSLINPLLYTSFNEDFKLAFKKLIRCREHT

Active and inactive are the calls of the source. The calls are words filed in the database; no cut-off is given here.

Take `COc1ccc(CCN(CCCc2ccccc2)CCc2ccc3c(c2)OCO3)cc1OC`: the Ki in assay [1] was 29 nM. Further, the result (in the assay listed under Rattus norvegicus; in assay [2]) was inactive.
